From patent publication US20170021002A1, “AUGMENTATION OF CANCER AND CANCER ENDOTHELIAL VACCINE IMMUNOGENICITY BY HISTONE DEACETYLASE INHIBITORS” (Batu Biologics, Inc., priority 2015, published 2017)

Legend:
LLC cells = assay: Ex vivo cytotoxicity of NK cells from in vivo valproic acid treated mice to LLC cells; type: cell-based; conditions: NK cells isolated from in vivo valproic acid treated mice
ValloVax™ cells [1] = assay: Ex vivo cytotoxicity of NK cells from in vivo valproic acid treated mice to ValloVax™ cells; type: cell-based; conditions: NK cells isolated from in vivo valproic acid treated mice
[2] = tested on: ValloVax™ cells cultured with NK-92 cells; assay: Killing of VPA treated ValloVax™ cells by NK-92 cell line; type: cell-based, human; conditions: FIG. 4
Description: Cells were incubated with or without 1 mM VPA for 48 hours. NK-92 cells were added to the target cells as effector cells, and the cells were co-cultured for 4 h 37° C. To block NKG2D on NK-92 cells, 10 μg/ml anti-NKG2D mAb or mouse IgG1 isotype control antibody were added to the NK cells 30 min before co-culture. Viability was assessed by CellTiter Viability kit from Promega following the manufacturer's instructions.

ValloVax™ cells [3] = assay: Viability of ValloVax™ stimulator cells in MLR (CellTiter); type: cell-based, human; conditions: ValloVax™ cells treated with VPA, cultured with allogeneic responding cells, FIG. 2
Description: Cells were incubated with or without 1 mM VPA for 48 hours.
Depletion of T cells, B cells and NK cells was performed with Magnetic Activated Cell (MACS) isolation kits from Milteny Biotec following the manufacturer's instructions.
Viability was assessed by CellTiter Viability kit from Promega following the manufacturer's instructions.
(§1) Mixed lymphocyte reactions (MLR) were set up with 5×10^5 responder PBMC and 5×10^3 (1:100), 5×10^4 (1:10), […] γ-irradiated (10 Gy) ValloVax™ cells in round-bottomed 96-well plates (Nunc, Roskilde, Denmark). MLR were cultured in MEM-α supplemented with 2 mM L-glutamine, 1% P/S and 10% heat-inactivated human serum for 4 days in a humidified atmosphere with 5% CO2 at 37° C.

[4] = tested on: mixed lymphocyte reaction (PBMC with ValloVax™ cells); assay: Cytokine ELISA of mixed lymphocyte reaction supernatants; type: cell-based, human; conditions: ValloVax™ treated with VPA
Description: (§2) Peripheral blood mononuclear cells (PBMC) were isolated from buffy coats of healthy blood donors (Sanquin, Rotterdam, the Netherlands) by density gradient centrifugation using Ficoll-Paque PLUS (density 1.077 g/ml; GE Healthcare, Uppsala, Sweden). Cells were frozen at −150° C. until further use in RPMI-1640 medium with GlutaMAX™-I (Life Technologies) supplemented with 1% P/S, 10% human serum (Sanquin) and 10% dimethylsulphoxide (DMSO; Merck, Hohenbrunn, Germany).
as §1
For cytokine analysis supernatant was collected on day two of culture and analyzed by ELISA (R & D Systems) as per manufacturer's instructions.

[5] = tested on: allogeneic responding lymphocytes (responder PBMC); assay: Mixed lymphocyte reaction, proliferation by [3H]-thymidine incorporation; type: cell-based, human; conditions: placental endothelial stimulator cells pretreated with the agent; FIG. 1a
Description: as §2, §1
Cell proliferation was assessed by thymidine incorporation, [^3H]-thymidine (0.25 μCi/well; PerkinElmer, Groningen, the Netherlands) was added on day 4, incubated for 8 h and its incorporation was measured using the Wallac 1450 MicroBeta Trilux (PerkinElmer).
It was previously reported that ValloVax™, a placental endothelial derived cellular vaccine stimulates immunity to proliferating endothelium, resulting in tumor regression. […]

[6] = tested on: Lewis Lung Carcinoma (LLC); assay: Established Lewis Lung Carcinoma tumor model; type: in vivo, C57BL/6 mice; conditions: for antitumor activity / efficacy: VPA systemically administered (100 mg/kg intraperitoneally every third day) to animals receiving ValloVax™, 100 mg/kg; for antitumor activity / efficacy / tumor killing activity / therapeutic efficacy: FIG. 5; for tumor killing activity / therapeutic efficacy: ValloVax™ pretreated in vitro with VPA, compared to standard ValloVax™, LLC bearing mice
Excerpt: Female C57BL/6 aged 8-12 weeks were purchased from The Jackson Laboratory. Animals were housed under conventional conditions at the Animal Care Facility, Institute for Cellular Immunology, and were cared for in accordance with the guidelines established by the Canadian Council on Animal Care. Lewis Lung Carcinoma (LLC), a murine lung carcinoma originating from C57/BL6 mice was obtained from American Type Culture Collection (ATCC). The cells were maintained in RPMI1640 supplemented with 10% fetal bovine serum, 2 mM glutamine (Gibco-BRL, Life Technologies, Inc.) and were passaged by trypsinization once cells reached 75% confluence. The cell line was cultured at 37°0 C. in a 5% CO2 incubator under fully humidified conditions.
For induction of tumor growth, 5×10^5 LLC cells, American Type Culture Collection (Manassas, Va.) cells were injected subcutaneously into the hind limb flank. Four weekly vaccinations of 5×10^5 test cells were administered subcutaneously on the contralateral side to which tumors were administered. Tumors were allowed to grow for 2 weeks, subsequently to which one injection of ValloVax™ or VPA-pretreated ValloVax™ was given. Valproic acid was administered every third day at a concentration of 100 mg/kg intraperitoneally. Tumor growth was assessed every 3 days by two measurements of perpendicular diameters by a caliper, and animals were sacrificed when tumors reached a size of 1 cm in any direction. Tumor volume was calculated by the following formula: (the shortest diameter^2×the longest diameter)/2.

[7] = tested on: non-small cell lung cancer (NSCLC); conditions: patients diagnosed with metastatic disease; cited from earlier work

Molecule	cytotoxicity of NK cells to LLC cells (LLC cells)	cytotoxicity of NK cells to ValloVax™ cells ex vivo (ValloVax™ cells [1])	toxicity to VPA treated ValloVax™ cells [2]	viability of the ValloVax™ cells in MLR (ValloVax™ cells [3])	viability of the ValloVax™ cells in MLR (ValloVax™ cells [3]; listed as valproic acid)	IL-10 in MLR ([4]; FIG. 1d)	production of IFN-gamma in MLR ([4]; supernatants from MLR at 48 hours, FIG. 1b)	production of IL-18 in MLR ([4]; supernatants from MLR at 48 hours, FIG. 1c)	Proliferation of allogeneic responding lymphocytes (allostimulatory activity) [5]	antitumor activity / efficacy [6]	antitumor activity / efficacy ([6]; listed as valpoic acid)	antitumor activity / efficacy ([6]; listed as valproic acid)	tumor killing activity / therapeutic efficacy [6]	tumor killing activity / therapeutic efficacy ([6]; listed as valproic acid)	Survival ([6]; in vivo administration of VPA and ValloVax, established lung cancer model)	median overall survival (OS) [7] [months]
CCCC(CCC)C(=O)O [VPA, Valproic acid]	enhanced cytotoxicity	enhanced cytotoxicity	toxicity was observed	dose-dependent loss of viability	killing of ValloVax™ in vitro by an NK cell dependent mechanism	no significant upregulation	substantially increased	substantially increased	not	synergistic antitumor activity	enhanced antitumor efficacy	augmented efficacy against lung cancer	did not significantly augment	did not augment in vivo efficacy	Significantly Enhances Survival	
Nc1nc2[nH]cc(CCc3ccc(C(=O)N[C@@H](CCC(=O)O)C(=O)O)cc3)c2c(=O)[nH]1 [pemetrexed]																17
interferon gamma: cytokine used to pretreat placental endothelial cells (100 IU per ml) (protein, UniProt P01579 24-161, looked up) Interferon gamma: QDPYVKEAENLKKYFNAGHSDVADNGTLFLGILKNWKEESDRKIMQSQIVSFYFKLFKNFKDDQSIQKSVETIKEDMNVKFFNSNKKKRDDFEKLTNYSVTDLNVQRKAIHELIQVMAELSPAAKTGKRKRSQMLFRG									substantially enhanced							
